Assay results: US20060281763A1, “Carboxamide inhibitors of TGFbeta” (priority 2005, published 2006)
Where two headings read alike, the source gives them in different places.

Target: T1, TGFβ R1 (Homo sapiens, UniProt P36897)
T1 sequence (P36897 34-503): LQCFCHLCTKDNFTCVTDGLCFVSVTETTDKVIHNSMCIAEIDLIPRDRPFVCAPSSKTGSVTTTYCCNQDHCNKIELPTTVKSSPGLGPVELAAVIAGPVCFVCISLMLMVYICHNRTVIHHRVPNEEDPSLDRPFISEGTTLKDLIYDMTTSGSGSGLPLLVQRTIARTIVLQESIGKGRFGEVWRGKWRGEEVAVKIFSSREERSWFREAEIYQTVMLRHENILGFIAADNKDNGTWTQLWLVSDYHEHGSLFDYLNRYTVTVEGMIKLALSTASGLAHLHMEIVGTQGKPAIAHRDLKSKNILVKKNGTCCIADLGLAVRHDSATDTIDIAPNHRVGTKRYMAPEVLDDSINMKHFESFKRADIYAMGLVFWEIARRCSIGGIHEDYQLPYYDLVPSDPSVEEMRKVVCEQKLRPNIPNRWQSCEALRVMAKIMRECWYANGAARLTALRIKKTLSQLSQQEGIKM
Assay: TGFβ R1 autophosphorylation protocol (33P-ATP, phosphocellulose filter plate)
Type: biochemical
Conditions: 10 uM ATP, read-out: IC50 for Kinase Inhibition
Procedure, shortened: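 Incorporation of 33P from γ-33P-ATP (10 uM ATP final) into the kinase itself (170 nM) measured by phosphocellulose capture and scintillation counting. Incubation 20 min at room temperature in 20 mM MOPS pH 7 with […]; final DMSO ≤1%.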

[1] = 170 nM TGFβ R1, room temperature 20 minutes
[2] = 170 nM TGFβ R1, 20 minutes at room temperature

SMILES: COc1cnc(-c2cc(Cl)ccc2F)nc1Nc1ccncc1C(=O)NO [Compound 238, 4-[2-(5-Chloro-2-fluoro-phenyl)-5-methoxy-pyrimidine-4-ylamino]-N-hydroxy-nicotinamide]
- IC50 [1]: 1080 nM

SMILES: CCNC(=O)NCCNC(=O)c1cnccc1Nc1nc(-c2cc(Cl)ccc2F)ncc1OC [Compound 69, 4-[2-(5-Chloro-2-fluoro-phenyl)-5-methoxy-pyrimidin-4-ylamino]-N-[2-(3-ethyl-ureido)-ethyl]-nicotinamide]
- IC50 [2]: 150 nM

SMILES: CC(C)c1cnc(-c2cc(Cl)ccc2F)nc1Nc1ccncc1C(=O)NCCCN1CC[C@@H](O)C1 [Compound 113, 4-[2-(5-Chloro-2-fluoro-phenyl)-5-isopropyl-pyrimidin-4-ylamino]-N-[3-(3-hydroxy-pyrrolidin-1-yl)-propyl]-nicotinamide]
- IC50 [2]: 40 nM

SMILES: NC(=O)c1cnccc1Nc1nc(-c2cc(Cl)ccc2F)ncc1I [Compound 78, 4-[2-(5-Chloro-2-fluoro-phenyl)-5-iodo-pyrimidin-4-ylamino]-nicotinamide]
- IC50 [2]: 10 nM

SMILES: COc1cnc(-c2cc(Cl)ccc2F)nc1Nc1ccncc1C(=O)NCCCN1CCCC1C(=O)N(C)C (stereo not shown) [Compound 81, 4-[2-(5-Chloro-2-fluoro-phenyl)-5-methoxy-pyrimidin-4-ylamino]-N-[3-(2-dimethylcarbamoyl-pyrrolidin-1-yl)-propyl]-nicotinamide]
- IC50 [2]: 120 nM

SMILES: COc1cnc(-c2cc(Cl)ccc2F)nc1Nc1ccncc1C(=O)NCCNC(=O)NC(C)C [Compound 80, 4-[2-(5-Chloro-2-fluoro-phenyl)-5-methoxy-pyrimidin-4-ylamino]-N-[2-(3-isopropyl-ureido)-ethyl]-nicotinamide]
- IC50 [2]: 570 nM

SMILES: CN(C)c1cnc(-c2cc(Cl)ccc2F)nc1Nc1ccncc1C(=O)NCC(C)(C)O [Compound 51]
- IC50 [2]: 120 nM

SMILES: CCOP(=O)(OCC)O[C@@H](C)CNC(=O)c1cnccc1Nc1nc(-c2cc(Cl)ccc2F)ncc1C(C)C [Compound 233, Phosphoric acid 2-{(4-[2-(5-chloro-2-fluoro-phenyl)-5-isopropyl-pyrimidin-4-ylamino]-pyridine-3-carbonyl}-amino)-1-methyl-ethyl ester diethyl ester]
- IC50 [1]: 280 nM

SMILES: COc1cnc(-c2cc(Cl)ccc2F)nc1Nc1ccncc1C(=O)N1CC[C@H](N)C1 [Compound 211, (3-Amino-pyrrolidin-1-yl)-{4-[2-(5-chloro-2-fluoro-phenyl)-5-methoxy-pyrimidin-4-ylamino]-pyridin-3-yl)-methanone]
- IC50 [1]: 258 nM

SMILES: COc1cnc(-c2cc(Cl)ccc2F)nc1Nc1ccncc1C(=O)NCCNCCOC1O[C@H](CO)[C@H](O)[C@H](O)[C@H]1O (stereo partly shown) [Compound 158]
- IC50 [2]: 5 nM

SMILES: COc1cnc(-c2cc(Cl)ccc2F)nc1Nc1ccncc1C(=O)NCCCN/C(=N/C#N)N1CCOCC1 [Compound 43]
- IC50 [2]: 60 nM

SMILES: CC(C)c1cnc(-c2cc(Cl)ccc2F)nc1Nc1ccncc1C(=O)NC[C@H](C)OC(=O)CN [Compound 229, Amino-acetic acid 2-{[4-[2-(5-chloro-2-fluoro-phenyl)-5-isopropyl-pyrimidin-4-ylamino]-pyridine-3-carbonyl}-amino]-1-methyl-ethyl ester]
- IC50 [1]: 19 nM

SMILES: COc1cnc(-c2cc(Cl)ccc2F)nc1Nc1ccncc1C(=O)NCCCOCC(O)CO (stereo not shown) [Compound 163, 4-[2-(5-Chloro-2-fluoro-phenyl)-5-methoxy-pyrimidin-4-ylamino]-N-[3-(2,3-dihydroxy-propoxy)-propyl]-nicotinamide]
- IC50 [1]: 33 nM

SMILES: CNCCNC(=O)c1cnccc1Nc1nc(-c2cc(Cl)ccc2F)ncc1N1CCCC1 [Compound 22, 4-[2-(5-Chloro-2-fluoro-phenyl)-5-pyrrolidin-1-yl-pyrimidin-4-ylamino]-N-(2-methylamino-ethyl)-nicotinamide]
- IC50 [2]: 100 nM

SMILES: COc1cnc(-c2cc(Cl)ccc2F)nc1Nc1ccncc1C(=O)NCCNCC[C@@H]1O[C@H](CO)[C@@H](O)[C@H]1O [Compound 176, 4-[2-(5-Chloro-2-fluoro-phenyl)-5-methoxy-pyrimidin-4-ylamino]-N-{2-[2-(3,4-dihydroxy-5-hydroxymethyl-tetrahydro-furan-2-yl)-ethylamino]-ethyl}-nicotinamide]
- IC50 [1]: 5 nM

SMILES: CC(C)c1cnc(-c2cc(Cl)ccc2F)nc1Nc1ccncc1C(=O)NCCCO [Compound 188, 4-[2-(5-Chloro-2-fluoro-phenyl)-5-isopropyl-pyrimidin-4-ylamino]-N-(3-hydroxy-propyl)-nicotinamide]
- IC50 [1]: 5 nM

SMILES: COc1cnc(-c2cc(Cl)ccc2F)nc1Nc1ccncc1C(=O)NCCOCCO [Compound 104, 4-[2-(5-Chloro-2-fluoro-phenyl)-5-methoxy-pyrimidin-4-ylamino]-N-[2-(2-hydroxy-ethoxy)-ethyl]-nicotinamide]
- IC50 [2]: 310 nM

SMILES: COc1cnc(-c2cc(Cl)ccc2F)nc1Nc1ccncc1C(=O)NC[C@H](O)[C@@H](O)CN [Compound 55, N-(4-Amino-2,3-dihydroxy-butyl)-4-[2-(5-chloro-2-fluoro-phenyl)-5-methoxy-pyrimidin-4-ylamino]-nicotinamide]
- IC50 [2]: 130 nM

SMILES: COc1cnc(-c2cc(Cl)ccc2F)nc1Nc1ccncc1C(=O)NC1(CO)CC1 [Compound 162, 4-[2-(5-Chloro-2-fluoro-phenyl)-5-methoxy-pyrimidin-4-ylamino]-N-(1-hydroxymethyl-cyclopropyl)-nicotinamide]
- IC50 [1]: 42 nM

SMILES: COc1cnc(-c2cc(Cl)ccc2F)nc1Nc1ccncc1C(=O)NCC1(O)CCCCC1 [Compound 61, 4-[2-(5-Chloro-2-fluoro-phenyl)-5-methoxy-pyrimidin-4-ylamino]-N-(1-hydroxy-cyclohexylmethyl)-nicotinamide]
- IC50 [2]: 11800 nM

SMILES: COc1cnc(-c2cc(Cl)ccc2F)nc1Nc1ccncc1C(=O)NCCCN1CCCC1=O [Compound 11, 4-{2-(5-Chloro-2-fluoro-phenyl)-5-methoxy-pyrimidin-4-ylamino]-N-[3-(2-oxo-pyrrolidin-1-yl)-propyl]-nicotinamide]
- IC50 [2]: 120 nM

SMILES: CN1CCN(C(=O)c2cnccc2Nc2nc(-c3cc(Cl)ccc3F)ncc2C2CCCC2)CC1 [Compound 213, {4-[2-(5-Chloro-2-fluoro-phenyl)-5-cyclopentyl-pyrimidin-4-ylamino]-pyridin-3-yl}-(4-methyl-piperazin-1-yl)-methanone]
- IC50 [1]: 12900 nM

SMILES: CC(C)c1cnc(-c2cc(Cl)ccc2F)nc1Nc1ccncc1C(=O)N[C@H](CO)[C@@H](C)O [Compound 84, 4-[2-(5-Chloro-2-fluoro-phenyl)-5-isopropyl-pyrimidin-4-ylamino]-N-(2-hydroxy-1-hydroxymethyl-propyl)-nicotinamide]
- IC50 [2]: 1730 nM

SMILES: CCNC(=O)NCCCNC(=O)c1cnccc1Nc1nc(-c2cc(Cl)ccc2F)ncc1OC [Compound 75]
- IC50 [2]: 110 nM

SMILES: COc1cnc(-c2cc(Cl)ccc2F)nc1Nc1ccncc1C(=O)NCCNC(=O)COC1O[C@H](CO)[C@H](O)[C@H](O)[C@H]1O (stereo partly shown) [Compound 159, 4-[2-(5-Chloro-2-fluoro-phenyl)-5-methoxy-pyrimidin-4-ylamino]-N-{2-[2-(3,4,5-trihydroxy-6-hydroxymethyl-tetrahydro-pyran-2-yloxy)-acetylamino]-ethyl}-nicotinamide]
- IC50 [2]: 58 nM

SMILES: COc1cnc(-c2cc(Cl)ccc2F)nc1Nc1ccncc1C(=O)NC1CN(C(=O)OC(C)(C)C)C1 [Compound 86, 3-({4-[2-(5-Chloro-2-fluoro-phenyl)-5-methoxy-pyrimidin-4-ylamino]-pyridine-3-carbonyl}-amino)-azetidine-1-carboxylic acid tert-butyl ester]
- IC50 [2]: 310 nM

SMILES: COc1cnc(-c2cc(Cl)ccc2F)nc1Nc1ccncc1C(=O)NCCCNC(C)C [Compound 131, 4-[2-(5-Chloro-2-fluoro-phenyl)-5-methoxy-pyrimidin-4-ylamino]-N-(3-isoopropyl-amino-propyl)-nicotinamide]
- IC50 [2]: 21 nM

SMILES: COc1cnc(-c2cc(Cl)ccc2F)nc1Nc1ccncc1C(=O)NCCCNC(=O)Nc1ccc2c(c1)OCO2 [Compound 76, N-[3-(3-Benzo[1,3]dioxol-5-yl-ureido)-propyl]-4-[2-(5-chloro-2-fluoro-phenyl)-5-methoxy-pyrimidin-4-ylamino]-nicotinamide]
- IC50 [2]: 320 nM

SMILES: COc1cnc(-c2cc(Cl)ccc2F)nc1Nc1ccncc1C(=O)NCCCNCCC1O[C@H](COC(C)=O)[C@@H](OC(C)=O)[C@H](OC(C)=O)[C@H]1OC(C)=O (stereo partly shown) [Compound 97, Acetic acid 3,4,5-triacetoxy-6-{2-[3-({4-[2-(5-chloro-2-fluoro-phenyl)-5-methoxy-pyrimidin-4-ylamino]-pyridine-3-carbonyl}-amino)-propylamino]-ethyl}-tetrahydro-pyran-2-ylmethyl ester]
- IC50 [2]: 90 nM

SMILES: COc1cnc(-c2cc(Cl)ccc2F)nc1Nc1ccncc1C(=O)NCCCNC(=O)CO[C@H]1O[C@H](CO)[C@H](O)[C@H](O)[C@H]1O [Compound 140, 4-[2-(5-Chloro-2-fluoro-phenyl)-5-methoxy-pyrimidin-4-ylamino]-N-{3-[2-(3,4,5-trihydroxy-6-hydroxymethyl-tetrahydro-pyran-2-yloxy)-acetylamino]-propyl}-nicotinamide]
- IC50 [2]: 44 nM

SMILES: CC(C)c1cnc(-c2cc(Cl)ccc2F)nc1Nc1ccncc1C(=O)N[C@H]1CCC[C@@H]1O (stereo in doubt) [Compound 235, 4-[2-(5-Chloro-2-fluoro-phenyl)-5-isopropyl-pyrimidin-4-ylamino]-N-(2-hydroxy-cyclopentyl)-nicotinamide]
- IC50 [1]: 40 nM
